Values quoted from earlier work in PMC4522190 (ChemistryOpen, 2015).

System: proteases
Conditions: statement without data

cyclo-RRRWFW (head to tail) [c-WFW]
metabolic stability against proteases (in words): good metabolic stability against proteases
